The test system of experiment [1] is cyclin-luciferase (cyc-luc) turnover, activated APC/C. Nature of the experiment: cyc-luc turnover in mitotic Xenopus extracts (pre-treated with non-degradable cyclin B). The experiment is classed as biochemical. To be noted: 200 μM compound; extracts in mitosis before addition of compound. How it is done:
(§1) FIG. 1. Functional classification of inhibitors. Compounds that scored in the initial screen were reacquired as dry powders and retested in Xenopus extracts in 4 assays at 200 μM concentration (32) as described (6). […] (A) Compounds and cyclin-luciferase were added to interphase extracts, which were then induced to enter mitosis by addition of non-degradable cyclin B. Percent inhibition of cyc-luc turnover by each compound is coded according to the grayscale shown at the bottom of the figure; specific values are available in Table 1. (B) Extracts were pre-treated with non-degradable cyclin B to allow entry into mitosis prior to addition of test compound and reporter protein. (C) Interphase extracts were treated by addition of recombinant Cdh1 to activate cyc-luc turnover. (D) Interphase extracts were treated with recombinant axin to induce turnover of β-catenin-luciferase.
(§2) The “Cmpd” column corresponds to the numbers used in FIG. 1; “Class” refers to the class of inhibitor described in FIG. 1 and the text. Columns A-D show percent inhibition in the four assays described in FIG. 1. (A) Interphase extracts (B) Mitotic extracts (C) Interphase extracts stimulated with Cdh1 (D) Degradation of a β-catenin reporter protein in interphase extracts stimulated with recombinant axin. […] “ID#” refers to the identification number of the inhibitor obtained from the NCI (prefaced by NSC) or Chembridge (prefaced by C).
(§3) Dry compounds were redissolved at 20 mM concentration in DMSO, or a 50:50 water:DMSO mixture in certain cases. These compounds were then diluted ten-fold in XB and mixed thoroughly. For the assay in FIG. 1A, chilled interphase extract was mixed with cyclin BΔ90 (10 μg/ml) and cyc-luc (0.1 μg/ml) in bulk and then 27 μl of extract was pipetted to each well of a chilled 384-well plate. Three microliters of each compound (diluted in XB) was then added to each well, and then compounds mixed thoroughly. Plates were warmed to room temperature. After 70 minutes, 5 μl aliquots were transferred to another plate, and then 30 μl of luciferin reagent was added to each well and luminescence measured. Percent inhibition was calculated as described above. The reported values represent the average of three independent measurments. For the assay in FIG. 1B, interphase extracts were treated with 10 μg/cyclin B 90 for 50 minutes at room temperature and then chilled on ice. Cyc-luc was then added, and then 27 μl of extract was pipetted to each well of a chilled 384-well plate. Three microliters of each compound (diluted in XB) was then added to each well, and then compounds mixed thoroughly. Plates were warmed to room temperature. After 60 minutes, 5 μl aliquots were transferred to another plate, and then 30 μl of luciferin reagent was added to each well and luminescence measured. For the assay in FIG. 1C, recombinant Cdh1 (0.1 μg/ml) and cyc-luc were added to chilled interphase extracts. Extracts were then pipetted and compounds added as above. Plates were warmed to room temperature and incubated for three hours, following which luminescence was measured as above. For the assay in FIG. 1D, chilled interphase extracts received recombinant axin and beta-catenin-luciferase reporter as described (8). Extracts were aliquoted to chilled plates and compounds distributed as described above. Plates were warmed to room temperature, incubated for three hours, and luminescence measured.

Experiment [2] deals with Cdh1-stimulated cyc-luc proteolysis (APC/C). Nature of the experiment: cyc-luc turnover in interphase Xenopus extracts stimulated with recombinant Cdh1. The experiment is classed as biochemical. To be noted: 200 μM compound; negative values reflect stimulation of proteolysis. How it is done: as §1, §2, §3
For experiment [3], the system named is 26S proteasomes. Nature of the experiment: Degradation of UbSic1 by purified 26S proteasomes. To be noted: concentrations as low as 10 μM. The experiment is classed as biochemical, S. cerevisiae. How it is done: (§4) FIG. 2. […] (A) Degradation of UbSic1. Purified 26S proteasomes were preincubated in the presence or absence of test compounds. UbSic1 was then added, and degradation assayed as described (6). Py mock refers to the pyridine solvent in which C23 was dissolved which was marginally inhibitory, unlike the 50% DMSO vehicle used for other test compounds. (B) Deubiquitination of UbSic1. […] UbSic1 was then added, and deubiquitination was assayed as described (6). (C) Titration curve with varying concentrations of C92 to determine half-maximal inhibition of deubiquitination. (D) C92 inhibits binding of UbSic1 to 26S proteasomes. Purified 26S proteasomes immobilized on anti-Flag beads were incubated with UbSic1 in the presence or absence of C92 as described (6). Following binding, beads were washed and analyzed by immunoblotting with anti-Sic1 polyclonal serum. (E) Binding of UbSic1 to the polyUb binding proteins Rpn10 and Rad23 is inhibited by C92. Recombinant Gst-Rpn10 and Gst-Rad23 (1 μg each) were immobilized on glutathione sepharose beads and then incubated with UbSic1 in the presence or absence of C92. Following binding, beads were washed and analyzed by immunoblotting. (F) C92 interacts with multiUb chains. Equivalent amounts (5 μg) of purified Gst, Gst-fusion protein or multiUb chains were incubated with C92 or C1 before being loaded on a 5% native polyacryamide gel. Electrophoresis was performed as described (33). (G) C92 and C59 interact specifically with K48-linked Ub on native gels. Ub (16 μM), K48-linked diUb (8 μM), or tetraUb chains (8 μM) were preincubated with a two fold-molar excess (monoUb and diUb), or equivalent amounts (tetraUb) of test compounds before being resolved on native gels as in (G). Tetra K29Ub, K48Ub, and K63Ub refer to tetraubiquitin chains wherein the ubiquitins are linked via K29, K48, or K63.
Sic1 is a Cdk inhibitor in Saccharomyces cerevisiae that must be degraded for cells to enter S-phase (9-11). […]

In experiment [4] the test system is 26S proteasomes. Nature of the experiment: Deubiquitination of UbSic1 by epoxomicin-treated purified 26S proteasomes. The note with it: 100 μM test compound, 100 μM epoxomicin. The experiment is classed as biochemical, S. cerevisiae. How it is done:
as §4
FIG. 5. […] Assays were performed and evaluated as summarized in the legend to FIG. 2B. The metal chelating reagent phenanthroline is designated as “P”, and “Py” refers to the pyridine solvent that is used as the solvent for C23. (B) Titration curve for C59. (C) Inhibition of binding of ubiquitin conjugates to Gst-Rpn10 by C92 and C59, but not other compounds. The experiment was performed as described for FIG. 2E.
26S proteasomes were purified from S. cerevisiae cells expressing a Flag-tagged proteasomal subunit (PRE1) essentially as described (28).
Reactions were processed as above.

Entries after “also recorded” stand apart in the source; their conditions may differ.

Consider three compounds from patent US20050203063A1, “Proteasome pathway inhibitors and related methods” (priority 2003, published 2005).

`CC(=O)Nc1ccc(SSc2ccc(NC(C)=O)c3cccnc23)c2ncccc12` [Compound 23]: the “percent inhibition of cyc-luc turnover, (B) Mitotic extracts” value (“percent inhibition … (B) Mitotic extracts” below) in experiment [1] came out at 100%. For the same compound, the “percent inhibition of cyc-luc turnover, (C) Interphase extracts stimulated with Cdh1” value (shortened to “percent inhibition … with Cdh1”) in experiment [2] was determined as 100%. In addition, the “inhibitory effect on Sic1 (UbSic1) turnover” value (“inhibitory effect on Sic1” below) in experiment [3] is “more modest effect”. Moreover, the “inhibition of deubiquitination of UbSic1 (in words)” value (“inhibition … (in words)” for short) in experiment [4] (listed as C23) is listed as “marginal inhibition; also recorded: inhibited marginally”.
For `O=S(=O)(O)c1ccc2cc3c(cc2c1)NN(c1ccc(/C=C/c2ccc(N4Nc5cc6ccc(S(=O)(=O)O)cc6cc5N4)cc2S(=O)(=O)O)c(S(=O)(=O)O)c1)N3` [Compound 59], the “percent inhibition … (B) Mitotic extracts” value in experiment [1] was found to be 100%. For the same compound, the “percent inhibition … with Cdh1” value in experiment [2] is reported as 100%. In experiment [3], the “inhibitory effect on Sic1” value is recorded as “strong inhibitory effect”. Also, the “inhibition … (in words)” value in experiment [4] is given as “Complete inhibition”.
With `O=C(Nc1ccc(/C=C/c2ccc(NC(=O)c3cc(S(=O)(=O)O)c4cccnc4c3O)cc2S(=O)(=O)O)c(S(=O)(=O)O)c1)c1cc(S(=O)(=O)O)c2cccnc2c1O` [Compound 92], the “percent inhibition … (B) Mitotic extracts” value in experiment [1] is 22%. The “percent inhibition … with Cdh1” value in experiment [2] stood at 65%. Besides, the “inhibitory effect on Sic1” value in experiment [3] is recorded as “strong inhibitory effect”. Moreover, in experiment [4], the “inhibition … (in words)” value is given as “completely blocked”.
